Laboratory results reported in patent US6566368B2, “Apomorphine-containing dosage form for ameliorating male erectile dysfunction” (Pentech Pharmaceuticals, Inc., priority 1994, dated 2003).
Several values for one entry are separate records, joined by “and”; a condition that tells them apart may be missing. Equal values may be shown once. Read-outs that look alike come from different tables or passages of the source.

Key:
[1] = system: patients with psychogenic impotence; assay: Pilot Study #3: aqueous intranasal spray (1.25 mg per puff), […] erectile response, adverse effects; format: in vivo, human
Excerpt: The first patient was an anxious person who had been experiencing erectile dysfunction for two years.

[2] = system: men with psychogenic male erectile dysfunction (MED); assay: Pilot Study #6, third phase: home use, reported success of intercourse (Sexual Function questionnaire); format: in vivo, human; details: for Reported Success by Tablet Strength: home use; for Reported Success, Overall: all doses, 20/29
Excerpt: The third phase, a home-use phase, lasted 5 weeks. During this phase, subjects attempted coitus at least once each week after taking a single APO tablet. After each attempt the subject and their partner completed a Sexual Function questionnaire (Table XVII).
During the third phase, subjects had recorded at baseline, their satisfaction, erection, number of attempts, and successful intercourse on a VAS scale. Evaluable subjects first recorded a success rate, then completed VAS for erection results and satisfaction with intercourse following take-home treatment. Success rate was calculated for mg as well as μg/kg body weight doses (males). Several evaluations of the data were made including the male and female responses to treatments. The overall average success rate is 69% with APO treatment which is much higher than the average baseline rate 28% (Tables XXI, XXII).

[3] = system: patients with psychogenic impotence
[4] = system: patients with psychogenic impotence; remark: listed apart in the source
[5] = in vivo; for Vd (SS) / Vd (beta): male, human
[6] = cited from earlier work
[7] = system: men with psychogenic male erectile dysfunction (MED); assay: Pilot Study #6, third phase: home use, reported success of intercourse (Sexual Function questionnaire); format: in vivo, human; details: 4 or 6 mg APO sublingual tablets
clinical = details: male, human, in vivo; for clearance: Cl
[8] = system: patients with psychogenic impotence; details: for Mean (SE) erectile function / Percent (SE) successful erectile function (score at least 16): N 12
[9] = intranasal 2.5 mg, Patient No. 2
[10] = liquid apomorphine sublingual, 10 mg and 20 mg, ten evaluable patients
[11] = liquid sublingual 10 mg and 20 mg
[12] = sublingual tablets 2.5 mg and 5 mg, seven evaluable patients
[13] = Durif, F. et al., s.l., 7 × 3 mg tablets, 0.3 mg/kg, 7 subjects
[14] = Durif, F. et al., s.l., 14 × 3 mg tablets, 0.6 mg/kg, 7 subjects
[15] = Gancher, S. T., et al., s.c., 0.02 mg/kg, 5 subjects
[16] = Gancher, S. T., et al., s.l., 3 × 6 mg tablets, 0.25 mg/kg, 5 subjects
[17] = Montastruc, J. L., et al., s.c., 0.04 mg/kg, 9 subjects
[18] = Montastruc, J. L., et al., s.l., 10 × 3 mg tablets, 0.42 mg/kg, 9 subjects
[19] = sublingual tablets 3, 4, 5 mg (Table I), twelve patients

CN1CCc2cccc3c2[C@H]1Cc1ccc(O)c(O)c1-3 [apomorphine]
adverse effects [1, 9]: major hemodynamic adverse effects
blood pressure (hypotension) [1, 9]: 70/50
total yawns ([1]; intranasal 2.5 mg, Patient No. 2, ten minutes post-dosing): five
erectile response ([1]; intranasal administration): effective in eliciting an erection
score on both erotic and neutral video segments ([1]; intranasal spray 2.5 mg, 3.75 mg, first patient, categorized as a failure): less than sixteen
time to adverse effects (nausea and vomiting, dizziness, blurred vision, diaphoresis) ([1]; intranasal spray, first patient, after inadvertently increased dose): five
Reported Success by Tablet Strength ([2]; Female group, 4 mg): 5/7 (71.4%)
Reported Success by Tablet Strength ([2]; Female group, 8 mg): 4/7 (57.1%)
Reported Success by Apomorphine Dosage ([2]; Female group, 35-50 μg/kg): 3/5 (60.0%)
Reported Success by Apomorphine Dosage ([2]; Female group, 50-74 μg/kg): 9/11 (81.8%)
Reported Success by Apomorphine Dosage ([2]; Female group, 50-74 μg/kg, listed as APO): 82%
Reported Success by Apomorphine Dosage ([2]; Female group, >74 μg/kg): 8/13 (61.5%)
Reported Success, Overall ([2]; Female group): (69.0%)
Reported Success by Tablet Strength ([2]; Male group, 4 mg): 5/7 (71.4%)
Reported Success by Tablet Strength ([2]; Male group, 8 mg): 4/7 (57.1%)
Reported Success by Apomorphine Dosage ([2]; Male group, 35-50 μg/kg): 4/5 (80.0%)
Reported Success by Apomorphine Dosage ([2]; Male group, 50-74 μg/kg): 8/11 (72.7%)
Reported Success by Apomorphine Dosage ([2]; Male group, 50-74 μg/kg, listed as APO): 80%
Reported Success by Apomorphine Dosage ([2]; Male group, >74 μg/kg): 8/13 (61.5%)
Reported Success, Overall ([2]; Male group): (69.0%)
overall average success rate ([2]; take-home APO treatment, average baseline rate 28%): 69%
failures with apomorphine [3, 10]: 30%
successes (score of no less than 16 on both neutral and erotic video segments) [3, 10]: 70%
adverse effects [3, 11]: Adverse effects were reported at both dose levels
erectile response [3, 11]: produce erectile responses
longest duration of side effects [3, 11]: 30 to 40 min
onset of adverse effects [3, 11]: ten to fifteen
yawns per session ([3]; liquid sublingual 10 mg and 20 mg, each patient): two to five
erectile response ([3]; liquid sublingual 10 mg and 20 mg, listed as Apomorphine): effective in inducing erectile episodes without increasing libido
patients successful with apomorphine among those who had failed a trial of yohimbine HCl ([3]; of group of eight, liquid sublingual 10 mg and 20 mg): 6
patients developing nausea, diaphoresis, dizziness, blurred vision, decrease in blood pressure and heart rate ([3]; of ten evaluable, liquid sublingual 10 mg and 20 mg): eight
yawns per session ([4]; 2.5 mg dose, patients who failed testing): one or two
yawning responses per session ([4]; 5 mg dose): three to five
adverse effects ([4]; sublingual tablet 2.5 mg, the two successful patients): did not produce adverse effects
adverse effects (nausea, diaphoresis, dizziness, blurred vision, facial flushing, drop in heart rate and blood pressure) ([4]; sublingual tablet 5 mg): produced adverse effects
failures during lab testing [4, 12]: 71%
successes (score of no less than 16) during lab testing [4, 12]: 28% and 29%
erectile response ([4]; sublingual tablets 2.5 and 5 mg): produced erectile responses in some patients
time for sublingual tablets to dissolve ([4]; sublingual tablets 2.5 and 5 mg, under the tongue): five
yawns ([4]; the two successful patients, 2.5 mg and 5 mg doses): three to five
plasma concentration compared with previous reports (Table XVI) [5]: produced a lower plasma concentration
Vd (SS) ([5]; 4 mg): 1.836 mL
Vd (beta) ([5]; 4 mg): 4.076 mL
Vd (SS) ([5]; 8 mg): 46.30 mL
Vd (beta) ([5]; 8 mg): 69.09 mL
Cmax ([6]; Durif, F. et al., Clin. Neuropharm. 16:157-166, s.l., 7 × 3 mg tablets, 0.3 mg/kg, 7 subjects): 7.5 ng/mL
AUC [6, 13]: 929 ng·min/mL
Cl [6, 13]: 35 mL/min/kg
MRT [6, 13]: 128 min
Tmax [6, 13]: 31.5 min
Vd [6, 13]: 3.4 L/kg
AUC [6, 14]: 2,277 min*ng/ml
Cl [6, 14]: 30 mL/min/kg
Cmax [6, 14]: 22.7 ng/mL
MRT [6, 14]: 125 min
Tmax [6, 14]: 38.3 min
Vd [6, 14]: 2.8 L/kg
Cmax ([6]; Gancher, S. T., et al., Movement Disorders 6:212-216 (1991), s.l., 3 × 6 mg tablets, 0.25 mg/kg, 5 subjects): 14.3 ng/mL
Vd ([6]; Gancher, S. T., et al., i.v., […], 5 subjects, *Calculated): 0.043* l/kg
Tmax ([6]; Gancher, S. T., et al., i.v., […], 5 subjects): 6.7 min
AUC [6, 15]: 592.7 ng·min/mL
Cmax [6, 15]: 19.36 ng/mL
Tmax [6, 15]: 6.5 min
AUC [6, 16]: 1,057 min*ng/ml
Tmax [6, 16]: 45 min
Cmax ([6]; Montastruc, J. L., et al., Clin. Neuropharmacol. 14:432-437 (1991), s.l., 10 × 3 mg tablets, 0.42 mg/kg, 9 subjects): 28 ng/mL
AUC [6, 17]: 837 ng·min/mL
Cmax [6, 17]: 26 ng/mL
Tmax [6, 17]: 18 min
AUC [6, 18]: 1,882 min*ng/ml
Tmax [6, 18]: 41 min
men with MED in whom erections were caused [7]: 72%
Vd (clinical; 0.06 mg/kg): 2.33 L/kg
clearance (clinical; iv, 0.01 mg/kg): 72.8 mL/min/kg
Vd (clinical; iv, 0.01 mg/kg): 3.35 L/kg
AUC(0-inf) (clinical; iv, 1 mg, AUC (0-inf)): 3.45 ng·h/mL
clearance (clinical; iv, 1 mg): 5100 mL/min
Cmax (clinical; iv, Cmax): 8.36 ng/mL
active treatment compared with placebo, mean erectile function ([8]; 3 mg and 4 mg, regardless of stimulus background): more effective than placebo
Mean (SE) erectile function ([8]; Erotic stimulus, 3 mg): 18.75 (2.51)
Percent (SE) successful erectile function (score at least 16) ([8]; Erotic stimulus, 3 mg): 66.67 (13.61) Percent
Mean (SE) erectile function ([8]; Erotic stimulus, 4 mg): 19.83 (2.67)
Percent (SE) successful erectile function (score at least 16) ([8]; Erotic stimulus, 4 mg): 66.67 (13.61) Percent
Mean (SE) erectile function ([8]; Neutral stimulus, 3 mg): 11.83 (2.68)
Percent (SE) successful erectile function (score at least 16) ([8]; Neutral stimulus, 3 mg): 50.00 (14.43) Percent
Mean (SE) erectile function ([8]; Neutral stimulus, 4 mg): 13.50 (2.61)
Percent (SE) successful erectile function (score at least 16) ([8]; Neutral stimulus, 4 mg): 50.00 (14.43) Percent
number of yawns ([8]; all doses 3, 4, 5 mg): one or two
domestic use, patient reports ([8]; eight successful patients, one to four months): good erectile activity and no side effects
patients successfully treated among those who had failed a trial of yohimbine HCl ([8]; of group of seven): four
failures with apomorphine [8, 19]: 33%
patients successful with apomorphine [8, 19]: 67%
Ke (IV Administration, mean (Table XII)): 0.0237 min⁻¹
Ke (IV administration 1 mg, mean, n = 7): 0.0237 min⁻¹
Vd (male, human, in vivo, 0.114 mg/kg): 2.07 L/kg
Ke (sublingual 4 mg dose, individual subjects #1, #3, #6, #7): 0.0060 min⁻¹
Ke (sublingual 8 mg Dose, mean (Table XII)): 0.0056 min⁻¹
Ke (sublingual administration 8 mg dose, mean, n = 4): 0.0056 min⁻¹
